According to patent US9937235B2, “Lipidated peptides as anti-obesity agents” (USTAV ORGANICKE CHEMIE A BIOCHEMIE AKADEMIE VED CR, V.V.I, priority 2012, dated 2018):
Where a SMILES comes first, the peptide text is derived from it. [ ]: non-standard residue; d: D form. The star is where a group is joined. Phe(3,4-Cl2) = N[C@@H](Cc1ccc(Cl)c(Cl)c1)C(=O)O; 1Nal = N[C@@H](Cc1cccc2ccccc12)C(=O)O; Palmitoyl = CCCCCCCCCCCCCCCC(=O)*; Myristoyl = CCCCCCCCCCCCCC(=O)*; Lauroyl = CCCCCCCCCCCC(=O)*; Nle = CCCC[C@H](N)C(=O)O; Octanoyl = CCCCCCCC(=O)*

Tested on: fasted C57BL/6 mice
Experiment: Food intake in fasted mice after SC administration
Format: in vivo, mouse
Details: fasted C57BL/6 mice, 5 mg/kg SC, 45 min
Protocol: Male C57BL/6 mice (An Lab, Prague 4) were bred in the accredited animal facility in the Institute of Organic Chemistry and Biochemistry, Czech Academy of Sciences, Prague, at the Institute of Molecular Genetics, Prague 4, at the temperature of 22±2° C. with access to food and water ad libitum. The day/night cycle was 12/12 hours (light turned on at 6:00 am). Animals were treated according to the Animal Protection Act (Act No. 246/1992). The males were fed standard chow diet St-1 (Mlýn Kocanda, Praha, Czech Republic) which contained 66% saccharides, 25% proteins and 9% lipids with a caloric value of 3.4 kcal/g.
The food was withdrawn 17 hours prior to injection of lipidated peptide and free access to water was maintained. The administration of saline, PrRP or lipidated analogs was performed either by SC injection at doses of 1-10 mg/kg (volume 0.2 ml/mouse), or by ICV using infusion pump (cannulae were inserted into the third brain ventricle 4 days before the experiment following the procedure of Maixnerová et al. (Maixnerová et al., 2011)). The single dose of peptide was 4 nmol/mouse (5 μl/mouse).
Fifteen minutes after the lipidated peptide administration, the mice were given pre-weighed food. The food was then weighed every 30 minutes for 5-10 hours. The administration of every dose was performed at least twice and one group of mice consisted of at least 6 mice. The results were presented as % of food intake as compared with the control group injected with saline.
Statistical evaluation was performed using program Graph-Pad Prism Software (San Diego, Calif., USA), and the one-way ANOVA with a subsequent Dunnettovým post-hoc test. The difference in food intake between mice injected with saline and mice injected with the examined peptide were considered statistically significant at P<0.05.

| SMILES | Food intake in mice (5 mg/kg SC) % saline-treated group (45 min) |
| --- | --- |
| CC[C@H](C)[C@H](NC(=O)CNC(=O)[C@H](CCCNC(=N)N)NC(=O)[C@H](CO)NC(=O)[C@H](C)NC(=O)[C@H](Cc1ccc(O)cc1)NC(=O)[C@H](Cc1c[nH]c2ccccc12)NC(=O)[C@H](C)NC(=O)[C@@H]1CCCN1C(=O)[C@H](CC(N)=O)NC(=O)[C@@H](NC(=O)[C@H](CC(=O)O)NC(=O)[C@@H]1CCCN1C(=O)[C@@H](NC(=O)[C@H](CCCNC(=N)N)NC(=O)[C@@H](NC(=O)[C@H](CCC(=O)O)NC(=O)[C@H](CCSC)NC(=O)[C@H](CO)NC(=O)[C@H](Cc1c[nH]cn1)NC(=O)[C@H](CCCNC(=N)N)NC(=O)[C@H](Cc1c[nH]cn1)NC(=O)[C@@H](NC(=O)[C@H](CCCNC(=N)N)NC(=O)[C@@H](N)CO)[C@@H](C)O)[C@@H](C)CC)[C@@H](C)O)[C@@H](C)CC)C(=O)N[C@@H](CCCNC(=N)N)C(=O)N1CCC[C@H]1C(=O)N[C@H](C(=O)NCC(=O)N[C@@H](CCCNC(=N)N)C(=O)N[C@@H](Cc1ccccc1)C(N)=O)C(C)C [Analog 50] | 100% |
| CCCCCCCCCCCCCC(=O)N[C@@H](CO)C(=O)N[C@@H](CCCNC(=N)N)C(=O)N[C@H](C(=O)N[C@@H](Cc1c[nH]cn1)C(=O)N[C@@H](CCCNC(=N)N)C(=O)N[C@@H](Cc1c[nH]cn1)C(=O)N[C@@H](CO)C(=O)N[C@@H](CCSC)C(=O)N[C@@H](CCC(=O)O)C(=O)N[C@H](C(=O)N[C@@H](CCCNC(=N)N)C(=O)N[C@H](C(=O)N1CCC[C@H]1C(=O)N[C@@H](CC(=O)O)C(=O)N[C@H](C(=O)N[C@@H](CC(N)=O)C(=O)N1CCC[C@H]1C(=O)N[C@@H](C)C(=O)N[C@@H](Cc1c[nH]c2ccccc12)C(=O)N[C@@H](Cc1ccc(O)cc1)C(=O)N[C@@H](C)C(=O)N[C@@H](CO)C(=O)N[C@@H](CCCNC(=N)N)C(=O)NCC(=O)N[C@H](C(=O)N[C@@H](CCCNC(=N)N)C(=O)N1CCC[C@H]1C(=O)N[C@H](C(=O)NCC(=O)N[C@@H](CCCNC(=N)N)C(=O)N[C@@H](Cc1ccccc1)C(N)=O)C(C)C)[C@@H](C)CC)[C@@H](C)CC)[C@@H](C)O)[C@@H](C)CC)[C@@H](C)O [Analog 56] | 35% |
| CCCCCCCCCCCCCC(=O)N[C@H](Cc1ccccc1)C(=O)N[C@H](CCCNC(=N)N)C(=O)NCC(=O)N[C@H](C(=O)N1CCC[C@H]1C(=O)N[C@@H](CCCNC(=N)N)C(=O)N[C@H](C(=O)NCC(=O)N[C@@H](CCCNC(=N)N)C(=O)NCC(=O)N[C@H](C(=O)N[C@@H](Cc1ccc(O)cc1)C(=O)N[C@@H](Cc1c[nH]c2ccccc12)C(=O)N[C@@H](C)C(=O)N1CCC[C@H]1C(=O)N[C@@H](CC(N)=O)C(=O)N[C@H](C(=O)N[C@@H](CC(=O)O)C(=O)N1CCC[C@H]1C(=O)N[C@H](C(N)=O)[C@@H](C)O)[C@@H](C)CC)[C@@H](C)O)[C@@H](C)CC)C(C)C [Analog 37] (Myristoyl-[dF][dR]GVPRIGRGTYWAPNIDPT-NH2) | 100% |
| CCCCCCCC(=O)N[C@H](C(=O)N1CCC[C@H]1C(=O)N[C@@H](CC(=O)O)C(=O)N[C@H](C(=O)N[C@@H](CC(N)=O)C(=O)N1CCC[C@H]1C(=O)N[C@@H](C)C(=O)N[C@@H](Cc1c[nH]c2ccccc12)C(=O)N[C@@H](Cc1ccc(O)cc1)C(=O)N[C@@H](C)C(=O)N[C@@H](CO)C(=O)N[C@@H](CCCNC(=N)N)C(=O)NCC(=O)N[C@H](C(=O)N[C@@H](CCCNC(=N)N)C(=O)N1CCC[C@H]1C(=O)N[C@H](C(=O)NCC(=O)N[C@@H](CCCNC(=N)N)C(=O)N[C@@H](Cc1ccccc1)C(N)=O)C(C)C)[C@@H](C)CC)[C@@H](C)CC)[C@@H](C)O [Analog 52] (Octanoyl-TPDINPAWYASRGIRPVGRF-NH2) | 100% |
| CCCCCCCCCCCC(=O)N[C@@H](CO)C(=O)N[C@@H](CCCNC(=N)N)C(=O)N[C@@H](C)C(=O)N[C@@H](Cc1c[nH]cn1)C(=O)N[C@@H](CCC(N)=O)C(=O)N[C@@H](Cc1c[nH]cn1)C(=O)N[C@@H](CO)C(=O)N[C@@H](CCCC)C(=O)N[C@@H](CCC(=O)O)C(=O)N[C@H](C(=O)N[C@@H](CCCNC(=N)N)C(=O)N[C@H](C(=O)N1CCC[C@H]1C(=O)N[C@@H](CC(=O)O)C(=O)N[C@H](C(=O)N[C@@H](CC(N)=O)C(=O)N1CCC[C@H]1C(=O)N[C@@H](C)C(=O)N[C@@H](Cc1c[nH]c2ccccc12)C(=O)N[C@@H](Cc1ccc(O)cc1)C(=O)N[C@H](C(=O)NCC(=O)N[C@@H](CCCNC(=N)N)C(=O)NCC(=O)N[C@H](C(=O)N[C@@H](CCCNC(=N)N)C(=O)N1CCC[C@H]1C(=O)N[C@H](C(=O)NCC(=O)N[C@@H](CCCNC(=N)N)C(=O)N[C@@H](Cc1ccccc1)C(N)=O)C(C)C)[C@@H](C)CC)[C@@H](C)O)[C@@H](C)CC)[C@@H](C)O)[C@@H](C)O [Analog 17] (Lauroyl-SRAHQHS[Nle]ETRTPDINPAWYTGRGIRPVGRF-NH2) | 22% |
| CCCCCCCCCCCCCC(=O)N[C@@H](CO)C(=O)N[C@@H](CCCNC(=N)N)C(=O)N[C@@H](C)C(=O)N[C@@H](Cc1c[nH]cn1)C(=O)N[C@@H](CCC(N)=O)C(=O)N[C@@H](Cc1c[nH]cn1)C(=O)N[C@@H](CO)C(=O)N[C@@H](CCSC)C(=O)N[C@@H](CCC(=O)O)C(=O)N[C@H](C(=O)N[C@@H](CCCNC(=N)N)C(=O)N[C@H](C(=O)N1CCC[C@H]1C(=O)N[C@@H](CC(=O)O)C(=O)N[C@H](C(=O)N[C@@H](CC(N)=O)C(=O)N1CCC[C@H]1C(=O)N[C@@H](C)C(=O)N[C@@H](Cc1c[nH]c2ccccc12)C(=O)N[C@@H](Cc1ccc(O)cc1)C(=O)N[C@H](C(=O)NCC(=O)N[C@@H](CCCNC(=N)N)C(=O)NCC(=O)N[C@H](C(=O)N[C@@H](CCCNC(=N)N)C(=O)N1CCC[C@H]1C(=O)N[C@H](C(=O)NCC(=O)N[C@@H](CCCNC(=N)N)C(=O)N[C@@H](Cc1ccccc1)C(N)=O)C(C)C)[C@@H](C)CC)[C@@H](C)O)[C@@H](C)CC)[C@@H](C)O)[C@@H](C)O [Analog 60] (Myristoyl-SRAHQHSMETRTPDINPAWYTGRGIRPVGRF-NH2) | 20% |
| CCCCCCCC(=O)N[C@@H](CO)C(=O)N[C@@H](CCCNC(=N)N)C(=O)N[C@@H](C)C(=O)N[C@@H](Cc1c[nH]cn1)C(=O)N[C@@H](CCC(N)=O)C(=O)N[C@@H](Cc1c[nH]cn1)C(=O)N[C@@H](CO)C(=O)N[C@@H](CCCC)C(=O)N[C@@H](CCC(=O)O)C(=O)N[C@H](C(=O)N[C@@H](CCCNC(=N)N)C(=O)N[C@H](C(=O)N1CCC[C@H]1C(=O)N[C@@H](CC(=O)O)C(=O)N[C@H](C(=O)N[C@@H](CC(N)=O)C(=O)N1CCC[C@H]1C(=O)N[C@@H](C)C(=O)N[C@@H](Cc1c[nH]c2ccccc12)C(=O)N[C@@H](Cc1ccc(O)cc1)C(=O)N[C@H](C(=O)NCC(=O)N[C@@H](CCCNC(=N)N)C(=O)NCC(=O)N[C@H](C(=O)N[C@@H](CCCNC(=N)N)C(=O)N1CCC[C@H]1C(=O)N[C@H](C(=O)NCC(=O)N[C@@H](CCCNC(=N)N)C(=O)N[C@@H](Cc1ccccc1)C(N)=O)C(C)C)[C@@H](C)CC)[C@@H](C)O)[C@@H](C)CC)[C@@H](C)O)[C@@H](C)O [Analog 15] (Octanoyl-SRAHQHS[Nle]ETRTPDINPAWYTGRGIRPVGRF-NH2) | 94% |
| CCCCCCCCCCCCCCCC(=O)N[C@@H](CO)C(=O)N[C@@H](CCCNC(=N)N)C(=O)N[C@@H](C)C(=O)N[C@@H](Cc1c[nH]cn1)C(=O)N[C@@H](CCC(N)=O)C(=O)N[C@@H](Cc1c[nH]cn1)C(=O)N[C@@H](CO)C(=O)N[C@@H](CCCC)C(=O)N[C@@H](CCC(=O)O)C(=O)N[C@H](C(=O)N[C@@H](CCCNC(=N)N)C(=O)N[C@H](C(=O)N1CCC[C@H]1C(=O)N[C@@H](CC(=O)O)C(=O)N[C@H](C(=O)N[C@@H](CC(N)=O)C(=O)N1CCC[C@H]1C(=O)N[C@@H](C)C(=O)N[C@@H](Cc1c[nH]c2ccccc12)C(=O)N[C@@H](Cc1ccc(O)cc1)C(=O)N[C@H](C(=O)NCC(=O)N[C@@H](CCCNC(=N)N)C(=O)NCC(=O)N[C@H](C(=O)N[C@@H](CCCNC(=N)N)C(=O)N1CCC[C@H]1C(=O)N[C@H](C(=O)NCC(=O)N[C@@H](CCCNC(=N)N)C(=O)N[C@@H](Cc1cccc2ccccc12)C(N)=O)C(C)C)[C@@H](C)CC)[C@@H](C)O)[C@@H](C)CC)[C@@H](C)O)[C@@H](C)O [Analog 23] (Palmitoyl-SRAHQHS[Nle]ETRTPDINPAWYTGRGIRPVGR[1Nal]-NH2) | 13% |
| CCCCCCCCCCCCCC(=O)N[C@@H](CO)C(=O)N[C@@H](CCCNC(=N)N)C(=O)N[C@@H](C)C(=O)N[C@@H](Cc1c[nH]cn1)C(=O)N[C@@H](CCC(N)=O)C(=O)N[C@@H](Cc1c[nH]cn1)C(=O)N[C@@H](CO)C(=O)N[C@@H](CCCC)C(=O)N[C@@H](CCC(=O)O)C(=O)N[C@H](C(=O)N[C@@H](CCCNC(=N)N)C(=O)N[C@H](C(=O)N1CCC[C@H]1C(=O)N[C@@H](CC(=O)O)C(=O)N[C@H](C(=O)N[C@@H](CC(N)=O)C(=O)N1CCC[C@H]1C(=O)N[C@@H](C)C(=O)N[C@@H](Cc1c[nH]c2ccccc12)C(=O)N[C@@H](Cc1ccc(O)cc1)C(=O)N[C@H](C(=O)NCC(=O)N[C@@H](CCCNC(=N)N)C(=O)NCC(=O)N[C@H](C(=O)N[C@@H](CCCNC(=N)N)C(=O)N1CCC[C@H]1C(=O)N[C@H](C(=O)NCC(=O)N[C@@H](CCCNC(=N)N)C(=O)N[C@@H](Cc1ccc(Cl)c(Cl)c1)C(N)=O)C(C)C)[C@@H](C)CC)[C@@H](C)O)[C@@H](C)CC)[C@@H](C)O)[C@@H](C)O [Analog 25] (Myristoyl-SRAHQHS[Nle]ETRTPDINPAWYTGRGIRPVGR[Phe(3,4-Cl2)]-NH2) | 13% |
